We go through 5 molecules from article PMC6066796 (Antiviral Research, 2018).

In one data set the test system is hPIV3-GFP. In words: microbe, parasite or virus in culture. Type of data set: cell-based, human parainfluenza virus 3.
The test system of another data set is rMV^EZEGFP(3). The class given is cell-based, Measles virus.
The subject of another data set is rgRSV224. In words: microbe, parasite or virus in culture. Type of data set: cell-based, respiratory syncytial virus.
For data set [1], the system named is recombinant EBOV (Mayinga variant). Type of data set: cell-based, Ebola virus.
Another data set relates to EBOV-ZsG. In words: microbe, parasite or virus in culture. Type of data set: cell-based, Ebola virus.
Another data set relates to EBOV (Makona variant). Type of data set: cell-based, Ebola virus.
The subject of data set [2] is SUDV (Gulu variant). Type of data set: cell-based.
The subject of data set [3] is SUDV (Gulu variant). The class given is cell-based. The source holds these as a separate data set.
A further data set concerns RVFV-GFP, ZH501. In words: microbe, parasite or virus in culture. The class given is cell-based, Rift Valley Fever virus.
For data set [4], the system named is NiV-GFP2AM. The data set can be described thus: microbe, parasite or virus in culture. The class given is cell-based, Nipah virus.
Data set [5] has as its system NiV-GFP2AM. The data set can be described thus: microbe, parasite or virus in culture. Type of data set: cell-based, Nipah virus. This is another data set of the same source.
Another data set relates to MARV-ZsG. Type of data set: cell-based, Marburg virus.
The subject of a further data set is henipavirus (NiV, HeV). The class given is cell-based, Nipah virus, Hendra virus.
The test system of a further data set is reporter EBOVs. The class given is cell-based, Ebola virus.
The test system of a further data set is EBOV. Conditions: at 1000 μM; cited from earlier work.
The next data set relates to NiV (Malaysian genotype). The data set can be described thus: microbe, parasite or virus in culture. The class given is cell-based, Nipah virus.
The test system of another data set is HeV. In words: microbe, parasite or virus in culture. Type of data set: cell-based, Hendra virus.
A further data set deals with HeLa cells. Conditions: human.
The test system of a further data set is Huh7 cells. Particulars: human.
In the next data set the test system is SK-N-MC cells. Particulars: human.
Data set [6] has as its system NCI-H358 cells. Conditions: human.
For data set [7], the system named is NCI-H358 cells.
The test system of a further data set is NiV and EBOV. Type of data set: cell-based, Nipah virus, Ebola virus.
[8] abbreviates: Henipavirus nipahense, SAEC, in Homo sapiens.

Where two headings read alike, the source gives them in different places.

In the case of “2′-monofluoro-4′-azidocytidine [2′F-4′N3-C]”, the EC50 was 0.16 µM in the data set on hPIV3-GFP; 0.27 µM with rMV^EZEGFP(3); 0.28 µM with rgRSV224; 7.79 µM in [1]; 3.85 µM with EBOV-ZsG; roughly 10 µM in the data set with SUDV (Gulu variant) [2]. The 50% effective concentration (EC50) in the data set on RVFV-GFP, ZH501 is greater than 50 µM; with MARV-ZsG, greater than 50 µM. Besides, the “Inhibition of FFU formation” value in the data set with EBOV (Makona variant) is given as “did not detect significant inhibition”. Moreover, the “Reduction of infectious SUDV yield” value in the data set on SUDV (Gulu variant) [3] is given as “approximately 1.5 orders of magnitude”. Moreover, in the data set on NiV-GFP2AM [4], the “Effect on GFP expression” value is reported as “completely abolished”. Also, the “Effect on CPE” value in the data set on NiV-GFP2AM [5] is “completely abolished”. The “Inhibition of MARV infection by FFU assay” value in the data set with MARV-ZsG is “did not show any significant inhibition”. For the same molecule, in the data set with henipavirus (NiV, HeV), the “Reduction of infectious henipavirus yields” value is 4–5 orders of magnitude. Further, in the data set on reporter EBOVs, the “Antiviral activity against reporter EBOVs in Huh7 cells” value is recorded as “significantly decreased antiviral activity”.

Turning to `NC(=O)c1nc(F)c[nH]c1=O` [Favipiravir], the “Decrease of EBOV infectious yield” value in the data set on EBOV was 4 logTCID50/mL.

For the molecule `[N-]=[N+]=N[C@]1(CO)O[C@@H](n2ccc(N)nc2=O)[C@H](O)[C@@H]1O` [R1479, 4′-azidocytidine], the “SI (selective index)” value in the data set with NiV (Malaysian genotype) was 2.9 ± 0.95 [>34]; with HeV, 2.1 ± 0.57 [>47]; in the data set on hPIV3-GFP it was 3.2 ± 0.50 [>32]; in the data set on rMV^EZEGFP(3) it was 1.9 ± 0.12 [>52]; with rgRSV224, 3.3 ± 0.39 [>30]; with EBOV-ZsG, 2.1 ± 0.07 [>47]. In addition, the EC50 in the data set with NiV (Malaysian genotype) (Henipavirus nipahense, NCI-H358) turned out to be 2.9 µM; in the data set on HeV (Henipavirus hendraense, NCI-H358) it was 2.1 µM; in the data set on hPIV3-GFP (Human respirovirus 3, NCI-H358), 3.2 µM; in the data set with rgRSV224 (human respiratory syncytial virus, NCI-H358) it was 3.3 µM; in data set [1] it was 2.6 µM; in the data set with EBOV-ZsG (Zaire ebolavirus, NCI-H358), 2.1 µM. The EC50 with EBOV (Makona variant) was 2.1 µM; with RVFV-GFP, ZH501 (Rift Valley fever virus, NCI-H358), greater than 50 µM; in the data set on NiV-GFP2AM [4] (setting [8]), greater than 50 µM; in the data set with NiV-GFP2AM [5] (setting [8]) it was greater than 50 µM. Besides, the “Inhibition of FFU formation” value in the data set with EBOV (Makona variant) is recorded as “dose-dependent inhibition”. The “Reduction of infectious SUDV titers” value in the data set on SUDV (Gulu variant) [3] (at 25 μM) is > 4 orders of magnitude. Besides, the “Inhibition of MARV infection by FFU assay” value in the data set with MARV-ZsG was “did not show any significant inhibition”. The “Antiviral activity against reporter EBOVs in Huh7 cells” value in the data set with reporter EBOVs is “significantly decreased antiviral activity”. The “R1479-TP level (intracellular triphosphate)” value with HeLa cells turned out to be 136 ± 21 pmol/million cells; with Huh7 cells, 18 ± 0.6 pmol/million cells; with SK-N-MC cells it was 42 ± 10 pmol/million cells; in the data set on NCI-H358 cells [6] it was 391 ± 72 pmol/million cells. Further, in the data set with NCI-H358 cells [7], the “Cytotoxicity (cell viability)” value was “mild cytotoxicity”.

`[N-]=[N+]=N[C@]1(CO)O[C@@H](n2ccc(N)nc2=O)[C@@H](F)[C@@H]1O` [RO-0622, 2′-deoxy-2′-β-fluoro-4′-azidocytidine]: the “Antiviral activity against NiV and EBOV” value with NiV and EBOV is given as “little to no antiviral activity”.

Regarding `[N-]=[N+]=N[C@]1(CO)O[C@@H](n2ccc(N)nc2=O)[C@@H](O)[C@@H]1O` [RO-9187, 2′-deoxy-2′-β-hydroxy-4′-azidocytidine], in the data set with NiV and EBOV, the “Antiviral activity against NiV and EBOV” value was “little to no antiviral activity”.

By EC50 is commonly meant the concentration at which the effect is half-maximal.
